Patent US9981940B2, “Aryl sulfide derivatives and aryl sulfoxide derivatives as acaricides and insecticides” (BAYER CROPSCIENCE AKTIENGESELLSCHAFT, priority 2013, dated 2018)

Tests used:
[1] = log P by HPLC (OECD Guideline 117), method [a] acidic range; format: physicochemical; conditions: for logP[a]: HPLC, method [a] acidic range; for chromatographic logP: reversed-phase C18 HPLC column, acidic range
Description: (§1) The log P values were determined analogously to OECD Guideline 117 (EC Directive 92/69/EEC) by HPLC (high-performance liquid chromatography) using reversed-phase columns (C 18), by the following methods:
[a] The LC-MS determination in the acidic range is effected at pH 2.7 with 0.1% aqueous formic acid and acetonitrile (contains 0.1% formic acid) as eluents; linear gradient from 10% acetonitrile to 95% acetonitrile.

[2] = tested on: Boophilus microplus; assay: Boophilus microplus injection test (BOOPMI Inj); format: in vivo; conditions: application rate of 20 μg/animal, assessed after 7 days by laying of fertile eggs
Description: Use Examples Boophilus microplus Injection Test (BOOPMI Inj) • Solvent: dimethyl sulphoxide
To prepare an appropriate active ingredient formulation, 10 mg of active ingredient are mixed with 0.5 ml of solvent and the concentrate is diluted with solvent to the desired concentration.
1 μl of the active ingredient solution is injected into the abdomen of 5 engorged adult female cattle ticks (Boophilus microplus). The animals are transferred into dishes and kept in a climate-controlled room.
The efficacy is assessed after 7 days by laying of fertile eggs. Eggs which are not visibly fertile are stored in a climate-controlled cabinet until the larvae hatch after about 42 days.
An efficacy of 100% means that none of the ticks has laid any fertile eggs; 0% means that all the eggs are fertile.

[3] = tested on: Tetranychus urticae; assay: Tetranychus urticae spray test, OP-resistant (TETRUR); format: in vivo; conditions: application rate of 500 g/ha, after 6 days; for pest or weed control at 500 g/ha: Tetranychus urticae, 144 h, read-out: efficacy
Outline: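 Bean leaf discs infested with all stages of an OP-resistant Tetranychus urticae strain sprayed with compound in acetone/DMF with alkylaryl polyglycol ether emulsifier, diluted in water. Efficacy in % scored after 6 days; 100% means all mites killed.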

[4] = log P by HPLC (OECD Guideline 117), method [b] neutral range; format: physicochemical; conditions: HPLC; for logP[b]: method [b] neutral range; for chromatographic logP: reversed-phase C18 HPLC column, neutral range, pH 7.8
Description: as §1
[b] The LC-MS determination in the neutral range is effected at pH 7.8 with 0.001 molar aqueous ammonium hydrogencarbonate solution and acetonitrile as eluents; linear gradient from 10% acetonitrile to 95% acetonitrile.

[5] = pH 2.7, HPLC method [a], read-out: logP[a]
[6] = pH 2.7, HPLC, pH 2.7, read-out: log P[a]

| logP[a] [1] | logP[b] [4] | chromatographic logP [1, 5] | chromatographic logP [1, 6] | chromatographic logP [4] | Compound | efficacy [2] [%] | efficacy [3] [%] | pest or weed control at 500 g/ha [3] [%] |
| --- | --- | --- | --- | --- | --- | --- | --- | --- |
| 4.1 | 4.02 | – | – | – | Cc1cc(F)c(-n2nc(C(C)C)n(C3CC3)c2=S)cc1SCC(F)(F)F [Example 494] | – | 100 | – |
| 4.52 | 4.43 | – | – | – | CCCCc1nn(-c2cc(SCC(F)(F)F)c(C)cc2F)c(=S)n1C1CC1 [Example 495] | – | 100 | – |
| 5.00 | 4.88 | – | – | – | Cc1cc(F)c(-n2nc(C3CCCCC3)n(C3CC3)c2=S)cc1SCC(F)(F)F [Example 496] | – | 90 | – |
| – | – | 4.68 | 4.68 | 4.57 | Cc1cc(F)c(-n2nc(C3CCCC3)n(C3CC3)c2=S)cc1SCC(F)(F)F [Example 497, 5-Cyclopentyl-4-cyclopropyl-2-{2-fluoro-4-methyl-5-[(2,2,2-trifluoroethyl)sulphanyl]-phenyl}-2,4-dihydro-3H-1,2,4-triazole-3-thione] | – | – | 90 |
| 4.24 | 4.14 | – | – | – | Cc1cc(F)c(-n2nc(C3CC3)n(C(C)C)c2=S)cc1SCC(F)(F)F [Example 498] | – | 100 | – |
| 4.46 | 4.39 | – | – | – | CCC(C)c1nn(-c2cc(SCC(F)(F)F)c(C)cc2F)c(=S)n1C1CC1 (stereo not drawn) [Example 499] | – | 90 | – |
| 3.82 | 3.77 | – | – | – | CCOCc1nn(-c2cc(SCC(F)(F)F)c(C)cc2F)c(=S)n1C1CC1 [Example 500] | – | 100 | – |
| 4.00 | 3.94 | – | – | – | CC=Cc1nn(-c2cc(SCC(F)(F)F)c(C)cc2F)c(=S)n1C1CC1 [Example 501] | – | 90 | – |

The remaining lines, values behind:

| Compound | logP[a] [1] | logP[b] [4] | chromatographic logP [1, 5] | chromatographic logP [1, 6] | chromatographic logP [4] | efficacy [2] [%] | efficacy [3] [%] | pest or weed control at 500 g/ha [3] [%] |
| --- | --- | --- | --- | --- | --- | --- | --- | --- |
| Cc1cc(F)c(-n2nc(Br)n(C3CC3)c2=O)cc1[S+]([O-])CC(F)(F)F (racemic) [Example 295] | 2.39 | 2.34 | – | – | – | 100 | 100 | – |
| Cc1cc(C)c([S+]([O-])CC(F)(F)F)cc1-n1nc(OCC(F)(F)F)n(C2CC2)c1=O (racemic) [Example 381] | 2.88 | 2.94 | – | – | – | 100 | 90 | – |
| Cc1cc(Cl)c([S+]([O-])CC(F)(F)F)cc1-n1nc(OCC(F)(F)F)n(C2CC2)c1=O (racemic) [Example 384] | 3.06 | 2.97 | – | – | – | 100 | 100 | – |
| COc1cc(F)c(-n2nc(OCC(F)(F)F)n(C3CC3)c2=O)cc1[S+]([O-])CC(F)(F)F (racemic) [Example 385] | 2.80 | 2.74 | – | – | – | 100 | – | – |
| CCn1ccn(-c2cc(SCC(F)(F)F)c(C)cc2F)c1=O [Example 486, 1-Ethyl-3-{2-fluoro-4-methyl-5-[(2,2,2-trifluoroethyl)sulphanyl]phenyl}-1,3-dihydro-2H-imidazol-2-one] | – | – | 2.84 | 2.84 | 2.79 | – | – | 100 |
| CCn1ccn(-c2cc([S+]([O-])CC(F)(F)F)c(C)cc2F)c1=O (stereo not drawn) [Example 487, 1-Ethyl-3-{2-fluoro-4-methyl-5-[(2,2,2-trifluoroethyl)sulphinyl]phenyl}-1,3-dihydro-2H-imidazol-2-one] | – | – | 1.83 | 1.83 | 1.81 | – | – | 90 |
| Cc1cc(F)c(-n2ccn(C(C)(C)C)c2=O)cc1SCC(F)(F)F [Example 488] | 3.69 | 3.63 | – | – | – | – | 100 | – |
| Cc1cc(F)c(-n2ccn(C(C)(C)C)c2=O)cc1[S+]([O-])CC(F)(F)F (stereo not drawn) [Example 489] | 2.50 | 2.47 | – | – | – | – | 90 | – |
| COCc1nn(-c2cc(SCC(F)(F)F)c(C)cc2F)c(=S)n1C1CC1 [Example 492] | 3.49 | 3.43 | – | – | – | – | 100 | – |
| Cc1cc(F)c(-n2nc(CC(C)C)n(C3CC3)c2=S)cc1SCC(F)(F)F [Example 493] | 4.44 | 4.35 | – | – | – | – | 100 | – |
